Measurements: PubChem BioAssay (NCI)
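Protocol summary: plate cells (96-well), add compound at 5 concentrations, incubate 48 h, interpolate endpoints linearly. TGI: concentration producing complete growth inhibition.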

Tests used:
Experiment in all cases: DTP human tumour cell line panel, 48 h
[1] = system: 786-0 renal
[2] = system: A549 NSCLC
[3] = system: BT-549 breast
[4] = system: CAKI-1 renal
[5] = system: COLO 205 colon
[6] = system: DU-145 prostate
[7] = system: EKVX NSCLC
[8] = system: HCT-116 colon
[9] = system: HCT-15 colon
[10] = system: HL-60(TB) leukemia
[11] = system: HOP-62 NSCLC
[12] = system: HOP-92 NSCLC
[13] = system: HS 578T breast
[14] = system: HT29 colon
[15] = system: IGROV1 ovarian
[16] = system: K-562 leukemia
[17] = system: KM12 colon
[18] = system: LOX IMVI melanoma
[19] = system: M14 melanoma
[20] = system: MALME-3M melanoma
[21] = system: MCF7 breast
[22] = system: MDA-MB-231 breast
[23] = system: MDA-MB-435
[24] = system: MDA-N
[25] = system: MOLT-4 leukemia
[26] = system: NCI-H226 lung
[27] = system: NCI-H23 lung
[28] = system: NCI-H460 lung
[29] = system: NCI-H522 lung
[30] = system: NCI/ADR-RES ovarian
[31] = system: OVCAR-3 ovarian
[32] = system: OVCAR-4 ovarian
[33] = system: OVCAR-5 ovarian
[34] = system: OVCAR-8 ovarian
[35] = system: PC-3 prostate
[36] = system: RPMI-8226 leukemia
[37] = system: RXF 393 renal
[38] = system: SF-295 CNS
[39] = system: SK-MEL-2 melanoma
[40] = system: SK-MEL-28 melanoma
[41] = system: SK-MEL-5 melanoma
[42] = system: SN12C renal
[43] = system: SNB-19 CNS
[44] = system: SW-620 colon
[45] = system: T-47D breast
[46] = system: TK-10 renal
[47] = system: U251 CNS
[48] = system: UACC-257 melanoma
[49] = system: UACC-62 melanoma
[50] = system: UO-31 renal

Q: What does the source list for `C/C(=N\n1c(Cc2ccccc2)n[nH]c1=O)c1ccc([N+](=O)[O-])cc1`?
A: TGI [1]: > 100 µM; TGI [2]: > 100 µM; TGI [3]: > 100 µM; TGI [4]: > 100 µM; TGI [5]: > 100 µM; TGI [6]: > 100 µM; TGI [7]: > 100 µM; TGI [8]: > 100 µM; TGI [9]: > 100 µM; TGI [10]: > 100 µM; TGI [11]: > 100 µM; TGI [12]: > 100 µM; TGI [13]: > 100 µM; TGI [14]: > 100 µM; TGI [15]: > 100 µM; TGI [16]: > 100 µM; TGI [17]: > 100 µM; TGI [18]: > 100 µM; TGI [19]: > 100 µM; TGI [20]: > 100 µM; TGI [21]: > 100 µM; TGI [22]: > 100 µM; TGI [23]: > 100 µM; TGI [24]: > 100 µM; TGI [25]: > 100 µM; TGI [26]: > 100 µM; TGI [27]: > 100 µM; TGI [28]: > 100 µM; TGI [29]: > 100 µM; TGI [30]: > 100 µM; TGI [31]: > 100 µM; TGI [32]: > 100 µM; TGI [33]: > 100 µM; TGI [34]: > 100 µM; TGI [35]: > 100 µM; TGI [36]: > 100 µM; TGI [37]: 57.2 µM; TGI [38]: > 100 µM; TGI [39]: > 100 µM; TGI [40]: > 100 µM; TGI [41]: > 100 µM; TGI [42]: > 100 µM; TGI [43]: > 100 µM; TGI [44]: > 100 µM; TGI [45]: > 100 µM; TGI [46]: > 100 µM; TGI [47]: > 100 µM; TGI [48]: > 100 µM; TGI [49]: > 100 µM; TGI [50]: > 100 µM
